From patent publication US9617267B2, “Compounds and methods for kinase modulation, and indications therefor” (Plexxikon Inc., priority 2009, dated 2017)

Assays:
c-Raf-1 = c-Raf-1 (Homo sapiens, UniProt P04049); test: c-Raf-1 kinase activity biochemical assay (AlphaScreen, biotin-MEK1 phosphorylation)
How it was run: (§1)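 Compounds from a 0.1 mM DMSO stock were tested at 8 serially diluted points. Kinase reactions with 100 μM ATP (final) ran 45 min at room temperature, then were stopped with EDTA buffer containing anti-phospho-MEK1/2 antibody plus streptavidin donor and protein A acceptor beads.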

B-Raf V600E = B-Raf V600E (Homo sapiens (Human), UniProt P15056, V600E); test: B-Raf V600E kinase activity biochemical assay (AlphaScreen, biotin-MEK1 phosphorylation)
How it was run: as §1

CYP2C9 = CYP2C9 (Homo sapiens (Human), UniProt P11712); test: CYP enzyme inhibition, fluorescent substrate (MFC); conditions: human, CYP2C9 enzyme (BD Biosciences), probe MFC
How it was run: (§2)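 First, 100 mM DMSO stocks are diluted into acetonitrile, then twofold through co-factor mix for 10 points. Next, mixtures are preincubated 10 min at 37 °C.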

B-Raf [1] = test: B-Raf kinase activity biochemical assay (AlphaScreen, biotin-MEK1 phosphorylation)
How it was run: as §1

B-Raf [2] = molecular target: B-Raf (Homo sapiens (Human), UniProt P15056); test: as above; conditions: B-Raf
How it was run: as §1

CYP3A4(BQ) = CYP3A4(BQ) (Homo sapiens (Human), UniProt P08684); test: CYP enzyme inhibition, fluorescent substrate BQ
How it was run: as §2

CYP2C19 = CYP2C19 (Homo sapiens (Human), UniProt P33261); test: CYP enzyme inhibition, fluorescent substrate (CEC); conditions: human, CYP2C19 enzyme (BD Biosciences), probe CEC
How it was run: as §2

CYP2D6 = CYP2D6 (Homo sapiens (Human), UniProt P10635); test: CYP enzyme inhibition, fluorescent substrate (AMMC); format: in vitro ADME; conditions: human, CYP2D6 enzyme (BD Biosciences), probe AMMC, read-out: Cyp IC50 2D6
How it was run: (§3)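 IC50 derived from loss of fluorescent metabolite across a 10-point 1:1 dilution series. CYP2D6: 1.5 pmol enzyme, 1.5 μM AMMC, 30 min at 37 °C, 409/530 nm; CYP1A2: 0.5 pmol, 5 μM CEC, 15 min, 409/460 nm. Compounds pre-incubated 10 min in NADPH-regenerating mix.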

CYP1A2 = CYP1A2 (Homo sapiens (Human), UniProt P05177); test: CYP enzyme inhibition, fluorescent substrate (CEC); conditions: human, CYP1A2 enzyme (BD Biosciences), probe CEC
How it was run: as §3

CYP3A4 = CYP3A4 (Homo sapiens (Human), UniProt P08684); test: CYP enzyme inhibition, fluorescent substrate BFC; conditions: human, CYP3A4 enzyme (BD Biosciences), probe BFC
How it was run: as §2

Chain of B-Raf V600E (P15056 whole entry V600E): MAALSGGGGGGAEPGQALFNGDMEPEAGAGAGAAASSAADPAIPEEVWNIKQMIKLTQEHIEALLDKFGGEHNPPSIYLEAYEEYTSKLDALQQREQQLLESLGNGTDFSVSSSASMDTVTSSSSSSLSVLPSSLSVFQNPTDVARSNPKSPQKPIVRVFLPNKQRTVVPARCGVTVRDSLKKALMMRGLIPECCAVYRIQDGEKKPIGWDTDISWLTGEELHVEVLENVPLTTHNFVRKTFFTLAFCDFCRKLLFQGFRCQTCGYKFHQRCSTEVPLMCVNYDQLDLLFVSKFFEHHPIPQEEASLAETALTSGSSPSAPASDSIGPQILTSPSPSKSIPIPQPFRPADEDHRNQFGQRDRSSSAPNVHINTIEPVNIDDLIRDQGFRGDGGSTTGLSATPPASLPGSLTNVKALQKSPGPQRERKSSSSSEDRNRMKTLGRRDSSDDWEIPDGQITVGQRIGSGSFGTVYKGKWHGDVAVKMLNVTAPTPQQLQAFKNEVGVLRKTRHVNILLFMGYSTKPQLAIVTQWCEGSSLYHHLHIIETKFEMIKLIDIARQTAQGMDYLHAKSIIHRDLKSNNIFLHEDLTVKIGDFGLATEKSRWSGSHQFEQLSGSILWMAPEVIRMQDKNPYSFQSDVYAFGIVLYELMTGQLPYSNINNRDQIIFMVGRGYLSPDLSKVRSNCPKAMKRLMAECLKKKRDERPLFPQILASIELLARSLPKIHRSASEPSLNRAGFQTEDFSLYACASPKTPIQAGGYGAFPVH
Chain of CYP1A2 (P05177 whole entry): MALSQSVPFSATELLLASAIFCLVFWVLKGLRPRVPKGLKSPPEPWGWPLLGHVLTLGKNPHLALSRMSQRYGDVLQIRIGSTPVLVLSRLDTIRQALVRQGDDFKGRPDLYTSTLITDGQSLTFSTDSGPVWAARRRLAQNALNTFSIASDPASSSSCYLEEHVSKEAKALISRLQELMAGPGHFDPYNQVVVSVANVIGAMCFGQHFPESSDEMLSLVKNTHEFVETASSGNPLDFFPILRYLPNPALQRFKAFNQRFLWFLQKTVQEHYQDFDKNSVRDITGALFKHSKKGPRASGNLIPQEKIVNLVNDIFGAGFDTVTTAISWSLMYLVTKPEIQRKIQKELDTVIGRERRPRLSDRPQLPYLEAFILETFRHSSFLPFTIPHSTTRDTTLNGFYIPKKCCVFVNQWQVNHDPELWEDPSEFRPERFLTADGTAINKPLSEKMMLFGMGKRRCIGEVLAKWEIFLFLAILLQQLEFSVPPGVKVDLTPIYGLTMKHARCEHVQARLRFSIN
Chain of c-Raf-1 (P04049 whole entry, looked up): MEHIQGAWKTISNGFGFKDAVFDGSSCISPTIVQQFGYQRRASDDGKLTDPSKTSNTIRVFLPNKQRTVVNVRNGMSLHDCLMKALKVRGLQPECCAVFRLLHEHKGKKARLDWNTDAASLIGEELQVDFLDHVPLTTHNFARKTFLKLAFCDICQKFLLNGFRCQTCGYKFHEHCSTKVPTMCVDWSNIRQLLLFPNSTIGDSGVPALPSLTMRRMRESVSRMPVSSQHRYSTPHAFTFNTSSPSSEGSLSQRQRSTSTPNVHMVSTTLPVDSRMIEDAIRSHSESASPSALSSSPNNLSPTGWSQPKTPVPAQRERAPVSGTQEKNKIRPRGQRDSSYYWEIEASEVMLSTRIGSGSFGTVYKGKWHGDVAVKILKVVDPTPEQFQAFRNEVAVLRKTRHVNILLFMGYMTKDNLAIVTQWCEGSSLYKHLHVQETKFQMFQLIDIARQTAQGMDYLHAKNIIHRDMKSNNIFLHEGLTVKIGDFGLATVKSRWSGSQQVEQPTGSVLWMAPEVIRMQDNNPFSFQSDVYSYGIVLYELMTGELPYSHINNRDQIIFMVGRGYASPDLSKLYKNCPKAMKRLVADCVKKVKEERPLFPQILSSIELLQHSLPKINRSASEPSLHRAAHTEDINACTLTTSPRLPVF
Chain of CYP2C19 (P33261 whole entry): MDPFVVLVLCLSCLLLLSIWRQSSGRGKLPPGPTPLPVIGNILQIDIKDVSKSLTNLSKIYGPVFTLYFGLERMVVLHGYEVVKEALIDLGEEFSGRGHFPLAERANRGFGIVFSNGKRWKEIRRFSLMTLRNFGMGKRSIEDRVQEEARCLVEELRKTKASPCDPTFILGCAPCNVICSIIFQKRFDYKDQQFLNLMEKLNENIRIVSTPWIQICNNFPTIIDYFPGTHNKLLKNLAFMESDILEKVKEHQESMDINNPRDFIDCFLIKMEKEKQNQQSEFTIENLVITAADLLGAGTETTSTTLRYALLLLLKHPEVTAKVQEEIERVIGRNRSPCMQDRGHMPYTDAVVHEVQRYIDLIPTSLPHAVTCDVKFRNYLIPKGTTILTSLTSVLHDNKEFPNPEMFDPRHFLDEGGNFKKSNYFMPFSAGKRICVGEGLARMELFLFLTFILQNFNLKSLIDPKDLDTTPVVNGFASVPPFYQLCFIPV
Chain of CYP3A4(BQ) (P08684 whole entry): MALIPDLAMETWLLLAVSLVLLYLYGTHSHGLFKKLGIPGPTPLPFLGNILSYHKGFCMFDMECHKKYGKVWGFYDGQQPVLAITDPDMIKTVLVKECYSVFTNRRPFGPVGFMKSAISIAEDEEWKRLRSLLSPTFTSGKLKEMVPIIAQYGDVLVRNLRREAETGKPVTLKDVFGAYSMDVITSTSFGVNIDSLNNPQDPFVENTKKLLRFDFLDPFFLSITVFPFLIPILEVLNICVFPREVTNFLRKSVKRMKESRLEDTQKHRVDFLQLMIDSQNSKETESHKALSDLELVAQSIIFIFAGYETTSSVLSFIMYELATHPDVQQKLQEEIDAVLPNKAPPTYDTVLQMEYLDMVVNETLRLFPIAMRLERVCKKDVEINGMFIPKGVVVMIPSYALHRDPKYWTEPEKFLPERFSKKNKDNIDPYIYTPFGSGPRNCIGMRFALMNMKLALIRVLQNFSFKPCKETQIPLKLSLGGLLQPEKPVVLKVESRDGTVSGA
Chain of CYP3A4 (P08684 whole entry): as above
Chain of CYP2C9 (P11712 whole entry): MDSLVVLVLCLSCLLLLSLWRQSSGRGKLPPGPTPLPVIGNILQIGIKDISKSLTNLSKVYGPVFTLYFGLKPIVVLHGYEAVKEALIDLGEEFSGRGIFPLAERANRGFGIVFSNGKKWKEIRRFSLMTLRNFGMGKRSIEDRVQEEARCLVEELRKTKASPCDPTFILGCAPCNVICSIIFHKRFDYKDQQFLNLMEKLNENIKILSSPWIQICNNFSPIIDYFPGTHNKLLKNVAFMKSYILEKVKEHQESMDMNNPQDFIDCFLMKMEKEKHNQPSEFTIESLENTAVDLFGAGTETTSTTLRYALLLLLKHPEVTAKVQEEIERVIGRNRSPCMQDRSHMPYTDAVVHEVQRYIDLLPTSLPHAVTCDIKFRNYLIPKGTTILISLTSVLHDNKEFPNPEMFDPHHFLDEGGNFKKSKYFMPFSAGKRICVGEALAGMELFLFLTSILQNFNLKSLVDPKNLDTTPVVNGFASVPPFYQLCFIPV
Chain of B-Raf (Homo sapiens (Human), UniProt P15056) (P15056 whole entry): as the sequence (P15056 whole entry V600E) above, with E600V counted along it
Chain of CYP2D6 (P10635 whole entry): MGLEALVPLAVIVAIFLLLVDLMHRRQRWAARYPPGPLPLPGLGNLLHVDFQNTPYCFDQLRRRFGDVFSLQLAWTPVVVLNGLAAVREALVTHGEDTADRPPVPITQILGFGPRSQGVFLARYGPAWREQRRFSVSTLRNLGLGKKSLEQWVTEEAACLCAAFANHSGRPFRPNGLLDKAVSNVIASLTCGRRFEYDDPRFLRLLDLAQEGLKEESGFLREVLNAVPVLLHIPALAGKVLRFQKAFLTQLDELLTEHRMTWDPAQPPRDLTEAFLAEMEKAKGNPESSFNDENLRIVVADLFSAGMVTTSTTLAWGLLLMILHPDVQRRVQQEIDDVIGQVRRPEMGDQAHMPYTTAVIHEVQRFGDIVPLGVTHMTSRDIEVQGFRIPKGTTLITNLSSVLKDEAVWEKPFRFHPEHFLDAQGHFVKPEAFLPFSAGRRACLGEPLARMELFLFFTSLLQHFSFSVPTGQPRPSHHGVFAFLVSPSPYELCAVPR

CCCS(=O)(=O)Nc1ccc(F)c(C(=O)c2c[nH]c3nccc(NC4CCCC4)c23)c1F [P-2012, Propane-1-sulfonic acid [3-(4-cyclopentylamino-1H-pyrrolo[2,3-b]pyridine-3-carbonyl)-2,4-difluoro-phenyl]-amide]
IC50 (c-Raf-1): < 0.1 µM
IC50 (B-Raf V600E; B-Raf V600E): < 0.1 µM
Biochemical activity ratio V600E/C (B-Raf V600E; ratio of IC50 B-Raf V600E / c-Raf-1): 0.1-10
IC50 at 45 min (CYP2C9): > 10 µM
Biochemical activity ratio B/V600E (B-Raf [1]; ratio of IC50 B-Raf / B-Raf V600E): 0.1-10
Biochemical activity ratio B/C (B-Raf [1]; ratio of IC50 B-Raf / c-Raf-1): >10
IC50 (B-Raf [2]): > 0.1 µM
IC50 (CYP3A4(BQ)): > 10 µM
IC50 at 30 min (CYP2C19): > 10 µM
IC50 at 30 min (CYP2D6): > 10 µM
IC50 at 15 min (CYP1A2): > 10 µM
IC50 at 30 min (CYP3A4): > 10 µM
